Like-named read-outs stand apart in the source and are kept apart here.
Experiments:
[1] = target: T1, HCV NS5B RdRp genotype 1b (Hepatitis C virus genotype 1b, UniProt Q9WMX2); experiment: HCV NS5B RdRp enzyme assay (standard / modified); assay type: biochemical
T1 construct: The protein was expressed with an 18 amino acid C-terminal truncation to enhance the solubility; made in house; host or cells: E. coli BL21(DE3), pET21a vector
Protocol: HCV NS5B RdRp Cloning, Expression, and Purification.
The cDNA encoding the NS5B protein of HCV, genotype 1b, was cloned into the pET21a expression vector. The protein was expressed with an 18 amino acid C-terminal truncation to enhance the solubility. The E. coli competent cell line BL21(DE3) was used for expression of the protein. Cultures were grown at 37° C. for ˜4 hours until the cultures reached an optical density of 2.0 at 600 nm. The cultures were cooled to 20° C. and induced with 1 mM IPTG. Fresh ampicillin was added to a final concentration of 50 μg/ml and the cells were grown overnight at 20° C.
The lysis buffer consisted of 20 mM Tris-HCl, pH 7.4, 500 mM NaCl, 0.5% triton X-100, 1 mM DTT, 1 mM EDTA, 20% glycerol, 0.5 mg/ml lysozyme, 10 mM MgCl2, 15 ug/ml deoxyribonuclease I, and Complete TM protease inhibitor tablets (Roche). After addition of the lysis buffer, frozen cell pellets were resuspended using a tissue homogenizer. To reduce the viscosity of the sample, aliquots of the lysate were sonicated on ice using a microtip attached to a Branson sonicator. The sonicated lysate was centrifuged at 100,000×g for 1 hr at 4° C. and filtered through a 0.2 μm filter unit (Corning).
The protein was purified using two sequential chromatography steps: Heparin sepharose CL-6B and polyU sepharose 4B (Pharmacia). The chromatography buffers were identical to the lysis buffer but contained no lysozyme, deoxyribonuclease I, MgCl2 or protease inhibitor and the NaCl concentration of the buffer was adjusted according to the requirements for charging the protein onto the column. Each column was eluted with a NaCl gradient which varied in length from 5-50 column volumes depending on the column type. […] The enzyme was aliquoted and stored at −80° C.
Standard HCV NS5B RdRp Enzyme Assay.
HCV RdRp genotype 1b assays were run in a final volume of 60 μl in 96 well plates (Corning 3600). The assay buffer is composed of 20 mM Hepes, pH 7.5, 2.5 mM KCl, 2.5 mM MgCl2, 1 mM DTT, 1.6 U RNAse inhibitor (Promega N2515), 0.01 mg/ml BSA (Sigma B6917), and 2% glycerol. All compounds were serially diluted (3-fold) in DMSO and diluted further in water such that the final concentration of DMSO in the assay was 2%. HCV RdRp genotype 1b enzyme was used at a final concentration of 28 nM. A polyA template was used at 6 nM, and a biotinylated oligo-dT12 primer was used at 180 nM final concentration. Template was obtained commercially (Amersham 27-4110). Biotinylated primer was prepared by Sigma Genosys. 3H-UTP was used at 0.6 μCi (0.29 μM total UTP). Reactions were initiated by the addition of enzyme, incubated at 30° C. for 60 min, and stopped by adding 25 μl of 50 mM EDTA containing SPA beads (4 μg/μl, Amersham RPNQ 0007). Plates were read on a Packard Top Count NXT after >1 hr incubation at room temperature.
Modified HCV NS5B RdRp Enzyme Assay.
A modified enzyme assay was performed essentially as described for the standard enzyme assay except for the following: The biotinylated oligo dT12 primer was precaptured on streptavidin-coated SPA beads by mixing primer and beads in assay buffer and incubating at room temperature for one hour. Unbound primer was removed after centrifugation. The primer-bound beads were resuspended in 20 mM Hepes buffer, pH 7.5 and used in the assay at final concentrations of 20 nM primer and 0.67 μg/μl beads. Order of addition in the assay: enzyme (1.75 nM) was added to diluted compound followed by the addition of a mixture of template (0.36 nM), 3H-UTP (0.6 μCi, 0.29 μM), and primer-bound beads, to initiate the reaction; concentrations given are final. Reactions were allowed to proceed for 4 hours at 30° C.
IC50 values for compounds were determined using seven different [I].

HCV replicon cells = experiment: HCV replicon FRET / luciferase assay; assay type: cell-based, Hepatitis C virus
Protocol: The HCV FRET screening assay was performed in 96-well cell culture plates. The FRET peptide (Anaspec, Inc.) (Taliani et al., Anal. Biochem. 1996, 240, 60-67) contains a fluorescence donor, EDANS, near one end of the peptide and an acceptor, DABCYL, near the other end. The fluorescence of the peptide is quenched by […] resonance energy transfer (RET) between the donor and the acceptor, but as the NS3 protease cleaves the peptide the products are released from RET quenching and the fluorescence of the donor becomes apparent. The assay reagent was made as follows: 5× cell Luciferase cell culture lysis reagent from Promega (#E153A) diluted to 1× with dH2O, NaCl added to 150 mM final, the FRET peptide diluted to 20 μM final from a 2 mM stock.
To prepare plates, HCV replicon cells, with or without a Renilla luciferase reporter gene, were trypsinized and plated in a 96-well plate with titrated test compounds added in columns 3 through 12; columns 1 and 2 contained a control compound (HCV control inhibitor), and the bottom row contained cells with DMSO only. The plates were then placed in a CO2 incubator at 37° C.
Subsequent to addition of the test compounds described above (FRET Assay Preparation), at various times the plate was removed and Alamar blue solution (Trek Diagnostics, #00-100) was added to measure cellular toxicity. After reading in a Cytoflour 4000 instrument (PE Biosystems), plates were rinsed with PBS and then used for FRET assay by the addition of 30 ul of the FRET peptide assay reagent described above (FRET Assay Preparation) per well. The plate was then placed into the Cytoflour 4000 instrument which had been set to 340 excite/490 emission, automatic mode for up to 20 cycles and the plate read in a kinetic mode. Typically, the signal to noise using an endpoint analysis after the reads was at least three-fold. Alternatively, after Alamar blue reading, plates were rinsed with PBS, then used for luciferase assay using the Promega Dual-Glo Luciferase Assay System or the Promega EnduRen Live Cell Substrate assay.
Compound analysis was performed by quantification of the relative HCV replicon inhibition and the relative cytotoxicity values. To calculate cytoxicity values, the average Alamar Blue fluorescence signals from the control wells were set as 100% non-toxic. The individual signals in each of the compound test wells were then divided by the average control signal and multiplied by 100% to determine […]. To calculate the HCV replicon inhibition values, an average background value was obtained from the two wells containing the highest amount of HCV control inhibitor at the end of the assay period. These numbers were similar to those obtained from naïve Huh-7 cells. The background numbers were then subtracted from the average signal obtained from the control wells and this number was used as 100% activity. The individual signals in each of the compound test wells were then divided by the averaged control values after background subtraction and multiplied by 100% to determine percent activity. […] The two numbers generated for the compound plate, percent cytoxicity and percent activity, were used to determine compounds of interest for further analysis.

[2] = HCV NS5B RdRp genotype 1b enzyme
[3] = HCV replicon cells, FRET or luciferase activity

T1 sequence (Q9WMX2 2420-2992): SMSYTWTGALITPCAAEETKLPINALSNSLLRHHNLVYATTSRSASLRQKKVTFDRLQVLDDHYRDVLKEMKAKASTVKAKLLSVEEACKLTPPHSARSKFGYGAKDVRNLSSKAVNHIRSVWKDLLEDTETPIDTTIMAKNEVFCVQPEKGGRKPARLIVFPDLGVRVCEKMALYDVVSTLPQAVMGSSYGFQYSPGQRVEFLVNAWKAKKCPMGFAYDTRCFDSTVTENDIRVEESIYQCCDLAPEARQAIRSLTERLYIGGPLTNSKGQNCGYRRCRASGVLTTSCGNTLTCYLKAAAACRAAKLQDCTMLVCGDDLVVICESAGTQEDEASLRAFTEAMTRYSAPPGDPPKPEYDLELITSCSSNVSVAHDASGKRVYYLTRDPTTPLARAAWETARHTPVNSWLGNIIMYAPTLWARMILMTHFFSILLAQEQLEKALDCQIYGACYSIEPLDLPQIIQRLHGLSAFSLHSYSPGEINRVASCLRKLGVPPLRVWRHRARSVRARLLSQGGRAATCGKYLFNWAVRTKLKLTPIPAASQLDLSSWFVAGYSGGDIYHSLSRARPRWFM

SMILES	IC50 [1, 2] [nM]	EC50 (HCV replicon cells; [3]) [nM]	IC50 [1] [nM]	EC50 (HCV replicon cells; Hepatitis C virus) [nM]	other results
COc1ccc2c(c1)C1CC1(C(=O)N1C3CCC1CN(C)C3)Cn1c-2c(C2CCCCC2)c2ccc(C(=O)NS(=O)(=O)N3C[C@@H](C)O[C@@H](C)C3)cc21 (stereo partly shown) [drawing 107]	1 to 500	1 to 500	–	–	–
COc1ccc2c(c1)C1CC1(C(=O)N1C3CCC1CN(C)C3)Cn1c-2c(C2CCCCC2)c2ccc(C(=O)NS(=O)(=O)N(C)C)cc21 (stereo not shown) [drawing 46]	–	–	–	–	IC50 ([1]; HCV NS5B RdRp genotype 1b enzyme, read-out: IC50): 1 to 500 nM; EC50 (HCV replicon cells; Hepatitis C virus, HCV replicon cells, FRET or luciferase activity, read-out: EC50): 1 to 500 nM
COc1ccc2c(c1)C1CC1(C(=O)N1C3CCC1CN(C)C3)Cn1c-2c(C2CCCCC2)c2ccc(C(=O)NS(=O)(=O)N3CCOCC3)cc21 (stereo not shown) [drawing 53]	1 to 500	1 to 500	–	–	–
CNS(=O)(=O)NC(=O)c1ccc2c(C3CCCCC3)c3n(c2c1)CC1(C(=O)N2[C@@H]4CC[C@H]2CN(C)C4)CC1c1cc(OC)ccc1-3 (stereo partly shown) [drawing 56]	1 to 500	1 to 500	–	–	–
CCC(CC)S(=O)(=O)NC(=O)c1ccc2c(C3CCCCC3)c3n(c2c1)CC1(C(=O)N2C4CCC2CN(C)C4)CC1c1cc(OC)ccc1-3 (stereo not shown)	–	–	1 to 500	> 110	–
COc1ccc2c(c1)C1CC1(C(=O)N1C3CCC1CN(C)C3)Cn1c-2c(C2CCCCC2)c2ccc(C(=O)NS(C)(=O)=O)cc21 (stereo not shown) [drawing 114]	1 to 500	1 to 500	–	–	–
COc1ccc2c(c1)C1CC1(C(=O)N1C3CCC1CN(C)C3)Cn1c-2c(C2CCCCC2)c2ccc(C(=O)NS(=O)(=O)N3CCC3)cc21 (stereo not shown) [drawing 51]	1 to 500	1 to 500	–	–	–
COc1ccc2c(c1)C1CC1(C(=O)N1C3CCC1CN(CC1CC1)C3)Cn1c-2c(C2CCCCC2)c2ccc(C(=O)NS(=O)(=O)N(C)C)cc21 (stereo not shown) [drawing 40]	–	–	1 to 500	1 to 500	–
COc1ccc2c(c1)C1CC1(C(=O)N1CC3CCC(C1)N3C(C)C)Cn1c-2c(C2CCCCC2)c2ccc(C(=O)NS(=O)(=O)N(C)C)cc21 (stereo not shown)	–	–	< 20	1 to 500	–
COc1ccc2c(c1)C1CC1(C(=O)N1C3CCC1CN(C)C3)Cn1c-2c(C2CCCCC2)c2ccc(C(=O)NS(=O)(=O)NC3CC3)cc21 (stereo not shown) [drawing 42]	–	–	1 to 500	1 to 500	–
COc1ccc2c(c1)C1CC1(C(=O)N1C3CCC1CN(C)C3)Cn1c-2c(C2CCCCC2)c2ccc(C(=O)NS(C)(=O)=O)cc21 (stereo not shown) [drawing 89]	–	–	1 to 500	1 to 500	–
COc1cccc2c1C1CC1(C(=O)N1C3CCC1CN(C)C3)Cn1c-2c(C2CCCCC2)c2ccc(C(=O)NS(=O)(=O)N(C)C)cc21 (stereo not shown)	–	–	1 to 500	> 500	–
COc1ccc2c(c1)C1CC1(C(=O)N1C3CCC1CN(C)C3)Cn1c-2c(C2CCCCC2)c2ccc(C(=O)NS(=O)(=O)N(C)C(C)C)cc21 (stereo not shown) [drawing 98]	–	–	1 to 500	1 to 500	–
COc1ccc2c(c1)C1CC1(C(=O)N1C3CCC1CN(C)C3)Cn1c-2c(C2CCCCC2)c2ccc(C(=O)NS(=O)(=O)N(C)C3CC3)cc21 (stereo not shown) [drawing 112]	1 to 500	1 to 500	–	–	–
COc1ccc2c(c1)C1CC1(C(=O)N1C3CCC1CN(C)C3)Cn1c-2c(C2CCCCC2)c2ccc(C(=O)NS(=O)(=O)NC3CC3)cc21 (stereo not shown) [drawing 68]	1 to 500	1 to 500	–	–	–
COc1ccc2c(c1)C1CC1(C(=O)N1C3CCC1CN(C(C)C)C3)Cn1c-2c(C2CCCCC2)c2ccc(C(=O)NS(=O)(=O)N(C)C)cc21 (stereo not shown) [drawing 37]	–	–	1 to 500	1 to 500	–
COc1ccc2c(c1)C1CC1(C(=O)N1C3CCC1CN(C)C3)Cn1c-2c(C2CCCCC2)c2ccc(C(=O)NS(=O)(=O)N3CCCCC3)cc21 (stereo not shown) [drawing 95]	–	–	1 to 500	1 to 500	–
COc1ccc2c(c1)C1CC1(C(=O)N1C3CCC1CN(c1ccccn1)C3)Cn1c-2c(C2CCCCC2)c2ccc(C(=O)NS(=O)(=O)N(C)C)cc21 (stereo not shown) [drawing 41]	–	–	1 to 500	1 to 500	–
COc1ccc2c(c1)C1CC1(C(=O)N1CC3CCC(C1)N3C(=O)OC(C)(C)C)Cn1c-2c(C2CCCCC2)c2ccc(C(=O)NS(=O)(=O)N(C)C)cc21 (stereo not shown)	–	–	< 20	1 to 500	–
COc1ccc2c(c1)C1CC1(C(=O)N1CC3CCC(C1)N3)Cn1c-2c(C2CCCCC2)c2ccc(C(=O)NS(=O)(=O)N(C)C)cc21 (stereo not shown)	–	–	1 to 500	1 to 500	–
COc1ccc2c(c1)C1CC1(C(=O)N1C3CCC1CNC3)Cn1c-2c(C2CCCCC2)c2ccc(C(=O)NS(=O)(=O)N(C)C)cc21 (stereo not shown) [drawing 59]	1 to 500	1 to 500	–	–	–
COc1ccc2c(c1)C1CC1(C(=O)NC1CC3CCC(C1)N3C)Cn1c-2c(C2CCCCC2)c2ccc(C(=O)NS(=O)(=O)N(C)C)cc21 (stereo not shown) [drawing 64]	1 to 500	1 to 500	–	–	–
CCN(C)S(=O)(=O)NC(=O)c1ccc2c(C3CCCCC3)c3n(c2c1)CC1(C(=O)N2C4CCC2CN(C)C4)CC1c1cc(OC)ccc1-3 (stereo not shown) [drawing 96]	–	–	1 to 500	1 to 500	–
CCN1CC2CCC(C1)N2C(=O)C12CC1c1cc(OC)ccc1-c1c(C3CCCCC3)c3ccc(C(=O)NS(=O)(=O)N(C)C)cc3n1C2 (stereo not shown) [drawing 36]	–	–	1 to 500	1 to 500	–
COc1ccc2c(c1)C1CC1(C(=O)N1C3CCC1CN(C)C3)Cn1c-2c(C2CCCCC2)c2ccc(C(=O)NS(=O)(=O)N(C)C3CC3)cc21 (stereo not shown) [drawing 99]	–	–	1 to 500	1 to 500	–
COc1ccc2c(c1)C1CC1(C(=O)N1C3CCC1CN(C)C3)Cn1c-2c(C2CCCCC2)c2ccc(C(=O)NS(=O)(=O)N3CCOCC3)cc21 (stereo not shown) [drawing 31]	–	–	1 to 500	1 to 500	–

Reference: patent US20130171098A1, “Cyclopropyl Fused Indolobenzazepine HCV NS5B Inhibitors” (priority 2006, published 2013)
